Experiments:
[1] = tested on: porcine (Sus scrofa) liver CES (SsCES); experiment: Inhibition of SsCES (spectrophotometric, 4-NPA substrate); type: biochemical; conditions: mean ± SEM, n = 3; for Inhibition of SsCES, % inhibition at 20 μM: compound 20 μM, n.a. = not active
From the text: (§1) In these experiments, human (Homo sapiens) erythrocyte AChE (HsAChE), equine (Equus caballus) serum BChE (EcBChE), and porcine (Sus scrofa) liver CES (SsCES) were used because of their ready availability, relatively low cost, and high sequence homology of EcBChE and SsCES to the corresponding human enzymes.
Although the dominant carboxylesterase in porcine liver is CES1 [64], the preparation sourced from Sigma-Aldrich is not a purified or recombinant CES1. Therefore, we have designated the preparation used in our experimental studies as SsCES. However, in computational molecular docking studies, it is necessary to choose a single defined protein as the docking target. Thus, the logical choice for our computational studies of CES was the most abundant and best characterized isoform found in porcine liver, which is SsCES1.
(§2) Enzymes, substrates, and reference compounds were sourced from Sigma-Aldrich (St. Louis, MO, USA). Enzyme activity was measured spectrophotometrically according to [91] using ATCh iodide, BTCh iodide, and 4-NPA as substrates for HsAChE, EcBChE, and SsCES, respectively. Experimental conditions included a K/Na-phosphate buffer (100 mM), at 25 °C, with pH 7.5 for AChE and BChE assays, and pH 8.0 for CES assays. Measurements were conducted on a BioRad Benchmark Plus microplate spectrophotometer (Hercules, CA, USA). Test compounds were dissolved in DMSO with a final solvent concentration of 2% (v/v) in the incubation mixture.

[2] = Ferric reducing antioxidant power (FRAP) assay;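 on Exp. FRAP, TE: same experimental FRAP TE values reprinted in Table 4 beside calculated BDE and IP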; conditions: for Ferric Reducing Antioxidant Power, TE: Trolox equivalents, acetate buffer pH 3.6, 1 h, 37 °C; for Exp. FRAP, TE: Water, Table 4
[3] = ABTS radical cation scavenging activity assay;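 on Exp. ABTS, TEAC: same experimental ABTS TEAC values reprinted in Table 4 beside calculated BDE and IP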; conditions: for IC50: ABTS^•+ 100 μM; for IC50 / ABTS^•+-Scavenging Activity, TEAC: ethanol, 1 h; for ABTS^•+-Scavenging Activity, TEAC: Trolox equivalent antioxidant capacity, mean ± SEM, n = 3; for Exp. ABTS, TEAC: Ethanol, Table 4
[4] = target: T1, peripheral anionic site (PAS) of Electrophorus electricus AChE (EeAChE) (Electrophorus electricus, UniProt O42275); experiment: Propidium displacement from the EeAChE PAS (fluorescence); type: binding; conditions: compound concentration 20 µM; EeAChE 7 μM, propidium iodide 8 μM, Tris-HCl pH 8.0; n.a. = not active
T1 construct: purchased Sigma-Aldrich type VI-S
T1 sequence (O42275 24-633): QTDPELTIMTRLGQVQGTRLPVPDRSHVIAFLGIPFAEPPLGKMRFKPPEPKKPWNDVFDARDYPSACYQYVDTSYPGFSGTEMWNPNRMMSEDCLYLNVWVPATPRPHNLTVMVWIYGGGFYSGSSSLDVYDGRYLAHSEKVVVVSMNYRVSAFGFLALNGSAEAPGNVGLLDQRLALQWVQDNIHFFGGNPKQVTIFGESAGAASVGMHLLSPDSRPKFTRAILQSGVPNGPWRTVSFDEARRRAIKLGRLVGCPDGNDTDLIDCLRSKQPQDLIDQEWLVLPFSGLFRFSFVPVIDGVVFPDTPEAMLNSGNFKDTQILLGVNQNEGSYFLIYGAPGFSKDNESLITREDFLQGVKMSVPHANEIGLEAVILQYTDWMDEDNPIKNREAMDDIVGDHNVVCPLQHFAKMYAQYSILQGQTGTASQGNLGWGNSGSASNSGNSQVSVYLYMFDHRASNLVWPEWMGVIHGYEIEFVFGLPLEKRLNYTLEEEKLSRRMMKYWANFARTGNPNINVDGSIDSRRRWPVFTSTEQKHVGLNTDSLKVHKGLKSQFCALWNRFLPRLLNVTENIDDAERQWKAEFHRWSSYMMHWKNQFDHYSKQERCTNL
Protocol: A fluorescence-based assay assessed the ability of test compounds to competitively displace propidium iodide from AChE’s PAS [65, 93]. […] EeAChE (7 μM) was incubated with 20 μM test compounds in Tris-HCl buffer (pH 8.0) for 15 min, followed by addition of propidium iodide (8 μM) as described in detail in [95]. Fluorescence readings (530 nm excitation, 600 nm emission) were obtained using a FLUOStar Optima microplate reader (LabTech, Ortenberg, Germany). Displacement (%) was calculated.

[5] = target: T2, human β-amyloid (1–42) (HsAβ42) (Homo sapiens, UniProt P05067); experiment: Inhibition of HsAβ42 self-aggregation (thioflavin T fluorescence); type: biochemical; conditions: HsAβ42 50 µM, compound 100 µM, 24 h, 37 °C; n.a. = not active
T2 construct: purchased AnaSpec Inc
T2 sequence (P05067 672-713 limits assumed): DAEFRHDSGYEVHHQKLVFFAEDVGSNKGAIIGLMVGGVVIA
Protocol: The potential of compounds from all three groups (1a-e, 5a-e, 7a-d) to inhibit HsAβ42 self-aggregation was evaluated using a Thioflavin T (ThT) fluorescence assay.
Inhibition of HsAβ42 self-aggregation by test compounds was studied using the thioflavin T (ThT) fluorescence method with minor modifications as described in detail in [79]. Lyophilized HFIP-pretreated HsAβ42 (AnaSpec Inc., Fremont, CA, USA, 0.5 mg) was dissolved in DMSO to obtain a stable 500 μM solution. The samples of 50 μM HsAβ42 in 215 mM Na-phosphate buffer pH 8.0 were incubated for 24 h at 37 °C in the absence or presence of 100 μM test compounds. Myricetin in the same concentration was used as a reference. After incubation, 5 μM ThT in 50 mM glycine-NaOH buffer pH 8.5 was added, and the fluorescence was measured at 440 nm (exc.) and 485 nm (emis.) with a FLUOStar Optima microplate reader. Blanks consisted of 215 mM Na-phosphate buffer, pH 8.0, 20% (v/v) DMSO or test compounds, respectively. The inhibition (%) of HsAβ42 self-aggregation by the test compounds was calculated.

[6] = target: T3, equine (Equus caballus) serum BChE (EcBChE) (Equus caballus, UniProt P81908); experiment: Inhibition of EcBChE (spectrophotometric, BTCh iodide substrate); type: biochemical; conditions: mean ± SEM, n = 3; for Inhibition of EcBChE, % inhibition at 20 μM: compound 20 μM, n.a. = not active; for IC50: K/Na-phosphate buffer pH 7.5, 25 °C
T3 construct: equine (Equus caballus) serum BChE (EcBChE); purchased Sigma-Aldrich; host or cells: horse serum
T3 sequence (P81908 whole entry): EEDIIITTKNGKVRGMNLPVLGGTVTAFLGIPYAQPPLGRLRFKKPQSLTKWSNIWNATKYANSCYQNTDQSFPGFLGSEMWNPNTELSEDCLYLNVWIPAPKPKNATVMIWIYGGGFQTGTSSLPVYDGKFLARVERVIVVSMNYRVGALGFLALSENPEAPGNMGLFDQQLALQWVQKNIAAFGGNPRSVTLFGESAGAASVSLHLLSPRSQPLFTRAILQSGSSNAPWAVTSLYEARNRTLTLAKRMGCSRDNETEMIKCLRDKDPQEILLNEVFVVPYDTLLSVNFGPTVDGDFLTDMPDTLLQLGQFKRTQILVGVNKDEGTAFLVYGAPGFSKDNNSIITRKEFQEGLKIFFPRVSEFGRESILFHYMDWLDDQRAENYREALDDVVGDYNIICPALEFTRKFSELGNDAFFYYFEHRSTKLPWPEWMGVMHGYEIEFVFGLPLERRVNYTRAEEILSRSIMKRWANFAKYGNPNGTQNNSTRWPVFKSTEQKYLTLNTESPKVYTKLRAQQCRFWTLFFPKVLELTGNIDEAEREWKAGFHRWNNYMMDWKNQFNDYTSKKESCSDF
Protocol: as §1, §2

[7] = target: T4, human (Homo sapiens) erythrocyte AChE (HsAChE) (Homo sapiens, UniProt P22303); experiment: Inhibition of HsAChE (spectrophotometric, ATCh iodide substrate); type: biochemical; conditions: mean ± SEM, n = 3; for Inhibition of HsAChE, % inhibition at 20 μM: compound 20 μM, n.a. = not active
T4 construct: human (Homo sapiens) erythrocyte AChE (HsAChE); purchased Sigma-Aldrich; host or cells: human erythrocytes
T4 sequence (P22303 32-617 isoform P22303-2 limits assumed): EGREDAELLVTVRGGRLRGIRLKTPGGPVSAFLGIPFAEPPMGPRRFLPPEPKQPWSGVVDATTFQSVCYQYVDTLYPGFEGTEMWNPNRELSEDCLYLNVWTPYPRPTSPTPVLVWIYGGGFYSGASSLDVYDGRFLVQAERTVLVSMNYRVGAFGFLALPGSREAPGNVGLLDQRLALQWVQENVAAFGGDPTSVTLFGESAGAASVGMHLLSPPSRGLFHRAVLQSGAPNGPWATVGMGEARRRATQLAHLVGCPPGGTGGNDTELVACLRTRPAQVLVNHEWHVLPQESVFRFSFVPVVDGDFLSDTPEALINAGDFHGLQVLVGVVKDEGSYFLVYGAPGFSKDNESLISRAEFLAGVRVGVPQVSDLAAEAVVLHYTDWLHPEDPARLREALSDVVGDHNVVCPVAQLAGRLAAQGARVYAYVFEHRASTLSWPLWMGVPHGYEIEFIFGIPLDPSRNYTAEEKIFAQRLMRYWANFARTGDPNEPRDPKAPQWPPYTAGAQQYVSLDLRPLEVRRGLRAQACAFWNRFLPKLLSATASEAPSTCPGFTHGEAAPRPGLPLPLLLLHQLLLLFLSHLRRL
Protocol: as §1, §2

Row | Compound | IC50 ([1]; K/Na-phosphate buffer pH 8.0, 25 °C) | Inhibition of SsCES, % inhibition at 20 μM [1] | Ferric Reducing Antioxidant Power, TE [2] | IC50 [3] | ABTS^•+-Scavenging Activity, TEAC [3] | Propidium Displacement, (%) [4] | HsAβ42 self-Aggregation Inhibition, (%) [5] | Inhibition of EcBChE, % inhibition at 20 μM [6] | Exp. FRAP, TE [2] | Inhibition of HsAChE, % inhibition at 20 μM [7] | Exp. ABTS, TEAC [3] | IC50 ([7]; K/Na-phosphate buffer pH 7.5, 25 °C) | IC50 [6]
1 | O=[N+]([O-])c1ccc(OP(=O)(O)Oc2ccc([N+](=O)[O-])cc2)cc1 [BNPP, bis-4-nitrophenyl phosphate, reference compound] | 1.8 µM | 99.1 ± 0.9% |  |  |  |  |  |  |  |  |  |  | 
2 | Cc1c(C)c2c(c(C)c1O)CCC(C)(C(=O)O)O2 (stereo not shown) [Trolox, reference compound] |  |  | 1.0 | 20.1 ± 1.2 µM | 1.0 |  |  |  |  |  |  |  | 
3 | [Fe+2].c1cc[c-](-c2ccnnc2)c1.c1cc[cH-]c1 [1e, 1-(pyridazin-4-yl)ferrocene] |  |  | 1.72 ± 0.02 | 9.2 ± 0.5 µM | 2.3 ± 0.1 | zero | 53.3 ± 3.7% | 13.1 ± 1.4% |  |  |  |  | 
4 | [Fe+2].c1cc[cH-]c1.c1cc[cH-]c1 [Fc, ferrocene] |  | 4.2 ± 0.7% | 0.79 ± 0.02 | 32.9 ± 1.9 µM | 0.57 ± 0.03 | zero | 3.5 ± 0.4% | 6.7 ± 1.0% | 0.79 ± 0.02 | 9.6 ± 1.4% | 0.57 ± 0.03 |  | 
5 | [Fe+2].c1cc[cH-]c1.c1ccc2[nH+]c(-[c-]3cccc3)ccc2c1 [1bp] |  |  |  |  |  |  |  |  | 2.21 ± 0.01 |  | 4.20 ± 0.20 |  | 
6 | C=C[c-]1cccc1.[Fe+2].c1ccc2c(-[c-]3cccc3)c3ccccc3nc2c1 [7c, 1-(Acridin-9-yl)-1′-Vinylferrocene] |  | 14.1 ± 1.5% | 1.36 ± 0.01 | 6.9 ± 0.3 µM | 2.9 ± 0.1 | 10.4 ± 0.8% | 86.9 ± 6.1% | 7.6 ± 1.1% |  | 22.8 ± 1.8% |  |  | 
7 | C=C[c-]1cccc1.[Fe+2].c1cc[cH-]c1 [compound 9, vinylferrocene, reference compound] |  | 23.4 ± 2.1% | 1.04 ± 0.02 | 19.4 ± 0.1 µM | 1.00 ± 0.04 | zero | 44.9 ± 3.1% |  | 1.04 ± 0.02 | 4.2 ± 0.9% | 1.00 ± 0.04 |  | 
8 | C=C(C)[c-]1cccc1.[Fe+2].c1ccc(-[c-]2cccc2)nc1 [5a] |  |  | 2.85 ± 0.13 | 9.4 ± 0.5 µM | 2.2 ± 0.1 | zero | 62.4 ± 4.9% | 18.3 ± 1.6% |  | 4.4 ± 1.1% | 2.20 ± 0.10 |  | 
9 | C=C[c-]1cccc1.[Fe+2].c1ccc2[nH+]c(-[c-]3cccc3)ccc2c1 [7bp] |  |  |  |  |  |  |  |  | 2.21 ± 0.02 |  |  |  | 
10 | [Fe+2].c1cc[cH-]c1.c1ccc2c(-[c-]3cccc3)c3ccccc3[nH+]c2c1 [1cp] |  |  |  |  |  |  |  |  | 1.59 ± 0.17 |  | 1.50 ± 0.08 |  | 
11 | C=C[c-]1cccc1.[Fe+2].c1ccc2c(-[c-]3cccc3)c3ccccc3[nH+]c2c1 [7cp] |  |  |  |  |  |  |  |  | 1.36 ± 0.01 |  |  |  | 
12 | [Fe+2].c1cc[cH-]c1.c1ccc(-[c-]2cccc2)[nH+]c1 [1ap] |  |  |  |  |  |  |  |  | 2.05 ± 0.02 |  | 2.10 ± 0.10 |  | 
13 | C=C[c-]1cccc1.[Fe+2].c1ccc(-[c-]2cccc2)nc1 [7a, 1-(Pyridin-2-yl)-1′-Vinylferrocene] |  | 18.5 ± 1.6% | 2.13 ± 0.03 | 8.4 ± 0.3 µM | 2.60 ± 0.08 | 9.6 ± 0.7% | 84.6 ± 7.5% |  |  |  | 2.60 ± 0.03 | 16.5 ± 1.3 µM | 20.1 ± 1.6 µM
14 | C=C(C)[c-]1cccc1.[Fe+2].c1ccc(-[c-]2cccc2)[nH+]c1 [5ap] |  |  |  |  |  |  |  |  | 2.85 ± 1.3 |  | 2.20 ± 0.10 |  | 
15 | C=C(C)[c-]1cccc1.[Fe+2].c1ccc2[nH+]c(-[c-]3cccc3)ccc2c1 [5bp] |  |  |  |  |  |  |  |  | 3.13 ± 1.7 |  | 4.30 ± 0.20 |  | 
16 | C=C(C)[c-]1cccc1.[Fe+2].c1ccc2c(-[c-]3cccc3)c3ccccc3[nH+]c2c1 [5cp] |  |  |  |  |  |  |  |  | 2.45 ± 0.14 |  | 1.35 ± 0.06 |  | 
17 | C=C(C)[c-]1cccc1.[Fe+2].c1cc[cH-]c1 [compound 8, isopropenylferrocene, reference compound] |  | 2.9 ± 0.6% | 1.1 ± 0.1 | 26.3 ± 1.5 µM | 0.73 ± 0.04 | zero |  | 3.9 ± 0.8% | 1.10 ± 0.10 |  | 0.73 ± 0.04 |  | 
18 | C=C(C)[c-]1cccc1.[Fe+2].c1cc[c-](-c2ccnnc2)c1 [5e, 1-Isopropenyl-1′-(Pyridazin-4-yl)Ferrocene] |  |  | 2.65 ± 0.02 | 9.3 ± 0.4 µM | 2.5 ± 0.2 | zero | 48.6 ± 3.5% |  |  |  |  |  | 
19 | [Fe+2].c1cc[cH-]c1.c1ccc(-[c-]2cccc2)nc1 [1a] |  | 17.5 ± 1.3% | 2.05 ± 0.02 | 10.8 ± 0.6 µM | 2.1 ± 0.1 | zero | 43.4 ± 3.4% | 20.3 ± 1.4% |  |  | 2.10 ± 0.10 |  | 
20 | [Fe+2].c1cc[cH-]c1.c1ccc2c(-[c-]3cccc3)c3ccccc3nc2c1 [1c] |  |  | 1.59 ± 0.17 | 14.6 ± 0.3 µM | 1.50 ± 0.08 | 11.2 ± 0.9% | 71.0 ± 4.9% | 21.2 ± 1.6% |  | 6.5 ± 0.8% |  |  | 
21 | C=C[c-]1cccc1.[Fe+2].c1ccc(-[c-]2cccc2)[nH+]c1 [7ap] |  |  |  |  |  |  |  |  | 2.13 ± 0.03 |  | 2.60 ± 0.03 |  | 
22 | C=C(C)[c-]1cccc1.[Fe+2].c1ccc2c(-[c-]3cccc3)c3ccccc3nc2c1 [5c] |  |  | 2.45 ± 0.14 | 15.8 ± 0.8 µM | 1.35 ± 0.06 | 10.5 ± 0.9% | 90.1 ± 7.2% |  |  | 36.7 ± 3.3% |  |  | 96.7 ± 6.6 µM
